Measurements taken from patent US20230295162A1 (EÖTVÖS LORÁND TUDOMÁNYEGYETEM, priority 2020, published 2023).

How the values were obtained:
[1] = tested on: H2228 lung cancer cell line; assay: High-throughput screening, CellTiter-Glo cell viability assay at 100 nM; assay type: cell-based, human; settings: Homo sapiens, NCI-H2228, HTS, compounds at 100 nM, 72 h, read-out: cytotoxicity expressed in IC50, H2228 (results of High throughput screening)
[2] = tested on: EBC-1 lung cancer cell line; assay: as above; assay type: cell-based, human; settings: Homo sapiens, EBC-1, HTS, compounds at 100 nM, 72 h, read-out: cytotoxicity expressed in IC50, EBC-1 (results of High throughput screening)
[3] = tested on: PANC-1 (human pancreatic carcinoma) cells; assay: Impedance-based viability assay (xCELLigence SP), long treatment; assay type: cell-based; settings: 72 h, read-out: cytotoxicity expressed in IC50, PANC-1
Excerpt: (Gibco®/Invitrogen Corporation, New York, NY, USA).
Data obtained from each experiment represent mathematical averages.

[4] = tested on: MDA-MB-231 (breast, adenocarcinoma) cells; assay: Cell viability assay, CellTiter-Glo (Example 21); assay type: cell-based, human; settings: 72 h treatment
Outline: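 MDA-MB-231 breast adenocarcinoma cells were seeded at 1500 cells/well in flat-bottomed white 96 well plates (BRANDplates®, cat. no.: 781965). Following compound exposure, viability was assessed with the CellTiter-Glo® luminescent assay (Promega) following the manufacturer's protocol, and luminescence was read on a BioTek Synergy 2 Multi-Mode Reader.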

[5] = tested on: SCC-25 (tongue, squamous cell carcinoma) cells; assay: Cell viability assay, CellTiter-Glo (Example 21); assay type: cell-based, human; settings: 72 h treatment
Outline: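 SCC-25 tongue squamous cell carcinoma cells were seeded at 1000 cells/well in flat-bottomed white 96 well plates, treated with compound, and viability was then determined with the CellTiter-Glo luminescent assay (Promega) following the manufacturer's instructions. Luminescence was read on a BioTek Synergy 2 Multi-Mode Reader.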

[6] = tested on: Panc-1 (pancreas, carcinoma) cells; assay: Cell viability assay, CellTiter-Glo (Example 21); assay type: cell-based, human; settings: 72 h treatment
Outline: (§1)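 Seeding density per line: Panc-1 750, FaDu 1000, Detroit 562 and MDA-MB-453 1500 cells/well. Viability after treatment read by CellTiter-Glo luminescence; dose-response curves fitted by four-parameter variable-slope non-linear regression.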

[7] = tested on: Capan-1 (pancreas, adenocarcinoma) cells; assay: Cell viability assay, CellTiter-Glo (Example 21); assay type: cell-based, human; settings: 72 h treatment
Outline: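 Capan-1 cells were seeded at 1000 cells/well in flat-bottomed white 96 well plates (BRANDplates®), with density optimized for cell size and growth rate. Following compound treatment, viability was measured with the CellTiter-Glo® luminescent assay (Promega) per the manufacturer's instructions, reading luminescence on a BioTek Synergy 2 Multi-Mode Reader.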

[8] = tested on: Detroit 562 (pharynx, carcinoma) cells; assay: Cell viability assay, CellTiter-Glo (Example 21); assay type: cell-based, human; settings: 72 h treatment
Outline: as §1

[9] = tested on: FaDu (pharynx, squamous cell carcinoma) cells; assay: Cell viability assay, CellTiter-Glo (Example 21); assay type: cell-based, human; settings: 72 h treatment
Outline: as §1

[10] = tested on: MIA PaCa-2 (pancreas, carcinoma) cells; assay: Cell viability assay, CellTiter-Glo (Example 21); assay type: cell-based, human; settings: 72 h treatment
Outline: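 MIA PaCa-2 pancreatic carcinoma cells were seeded at 1000 cells/well in flat-bottomed white 96 well plates (BRANDplates®, cat. no.: 781965) and treated with compound. Viability was then determined with the CellTiter-Glo® luminescent cell viability assay (Promega) following the manufacturer's instructions, with luminescence read on a BioTek Synergy 2 Multi-Mode Reader.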

[11] = tested on: PC-3 (prostate, adenocarcinoma) cells; assay: Cell viability assay, CellTiter-Glo (Example 21); assay type: cell-based, human; settings: 72 h treatment
Outline: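 PC-3 prostate adenocarcinoma cells were seeded at 1000 cells/well in flat-bottomed white 96 well plates and treated with compounds. Viability was then determined with the CellTiter-Glo® luminescent assay (Promega) following the manufacturer's instructions, with luminescence read on a BioTek Synergy 2 Multi-Mode Reader.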

[12] = tested on: DU 145 (prostate, carcinoma) cells; assay: Cell viability assay, CellTiter-Glo (Example 21); assay type: cell-based, human; settings: 72 h
Outline: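 DU 145 cancer cell viability was assessed with the CellTiter-Glo® luminescent assay (Promega, Madison, WI, USA), following the manufacturer's instructions. Cells were seeded at 1000 cells/well in flat-bottomed white 96 well plates, and after treatment luminescence was read on a BioTek Synergy 2 Multi-Mode Reader.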

[13] = tested on: LNCaP (prostate, carcinoma) cells; assay: Cell viability assay, CellTiter-Glo (Example 21); assay type: cell-based, human; settings: 72 h
Outline: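 LNCaP prostate carcinoma cell viability was assessed with the CellTiter-Glo® luminescent assay (Promega), following the manufacturer's instructions. Cells were seeded at 1500 cells/well into flat-bottomed white 96 well plates, treated, and then luminescence was read on a BioTek Synergy 2 Multi-Mode Reader. Dose-response curves were fitted in GraphPad Prism 8.4.2 by four-parameter variable-slope non-linear regression.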

[14] = tested on: MDA-MB-453 (breast, carcinoma) cells; assay: Cell viability assay, CellTiter-Glo (Example 21); assay type: cell-based, human; settings: 72 h treatment
Outline: as §1

[15] = tested on: EBC-1 (lung, squamous cell carcinoma) cells; assay: Cell viability assay, CellTiter-Glo (Example 21); assay type: cell-based, human; settings: 72 h treatment
Outline: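 EBC-1 lung squamous cell carcinoma cells were seeded at 1000 cells/well in flat-bottomed white 96 well plates. After compound treatment, viability was measured with the CellTiter-Glo luminescent assay following the manufacturer's instructions, and luminescence was read on a BioTek Synergy 2 Multi-Mode microplate reader.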

Work on `[N-]=[N+]=Nc1ccc(CN2C(=O)C3=C(CCN(Cc4cc(F)cc(F)c4)C3)N3CCN=C23)cc1` [I/107, 4-(4-Azidobenzyl)-7-(3,5-difluorobenzyl)-2,4,6,7,8,9-hexahydroimidazo[1,2-a]pyrido[3,4-e]pyrimidin-5(1H)-one] yielded an IC50 [1] of less than 0.1 µM, an IC50 [2] of less than 0.1 µM and an IC50 [3] of 0.011 µM. The “MDA-MB-231 (breast, adenocarcinoma) cell viability (% of control)” value ([4]; 3.7 nM) was 102.1 ± 3.5 % of control, the “MDA-MB-231 (breast, adenocarcinoma) cell viability (% of control)” value ([4]; 11.1 nM) was 98.6 ± 0.8 % of control and the “MDA-MB-231 (breast, adenocarcinoma) cell viability (% of control)” value ([4]; 100 nM) was 57.3 ± 1.8 % of control. For the same molecule, the “MDA-MB-231 (breast, adenocarcinoma) cell viability (% of control)” value ([4]; 300 nM) was 55.7 ± 0.9 % of control, the “SCC-25 (tongue, squamous cell carcinoma) cell viability (% of control)” value ([5]; 3.7 nM) was 97.3 ± 3.8 % of control and the “SCC-25 (tongue, squamous cell carcinoma) cell viability (% of control)” value ([5]; 11.1 nM) was 75.6 ± 6.8 % of control. For the same molecule, the “SCC-25 (tongue, squamous cell carcinoma) cell viability (% of control)” value ([5]; 100 nM) was 35.4 ± 5.7 % of control, the “SCC-25 (tongue, squamous cell carcinoma) cell viability (% of control)” value ([5]; 300 nM) was 42.4 ± 5.7 % of control and the “Panc-1 (pancreas, carcinoma) cell viability (% of control)” value ([6]; 3.7 nM) was 107.9 ± 11.5 % of control. For the same molecule, the “Panc-1 (pancreas, carcinoma) cell viability (% of control)” value ([6]; 11.1 nM) was 93.6 ± 8.1 % of control, the “Panc-1 (pancreas, carcinoma) cell viability (% of control)” value ([6]; 100 nM) was 54.2 ± 0.6 % of control and the “Panc-1 (pancreas, carcinoma) cell viability (% of control)” value ([6]; 300 nM) was 55.0 ± 3.2 % of control. The “Capan-1 (pancreas, adenocarcinoma) cell viability (% of control)” value ([7]; 3.7 nM) was 103.5 ± 3.0 % of control, the “Capan-1 (pancreas, adenocarcinoma) cell viability (% of control)” value ([7]; 11.1 nM) was 101.2 ± 5.2 % of control and the “Capan-1 (pancreas, adenocarcinoma) cell viability (% of control)” value ([7]; 100 nM) was 37.6 ± 2.3 % of control. The “Capan-1 (pancreas, adenocarcinoma) cell viability (% of control)” value ([7]; 300 nM) was 34.7 ± 2.9 % of control, the “Detroit 562 (pharynx, carcinoma) cell viability (% of control)” value ([8]; 3.7 nM) was 86.6 ± 5.7 % of control and the “Detroit 562 (pharynx, carcinoma) cell viability (% of control)” value ([8]; 11.1 nM) was 36.8 ± 5.1 % of control. For the same molecule, the “Detroit 562 (pharynx, carcinoma) cell viability (% of control)” value ([8]; 100 nM) was 31.4 ± 2.9 % of control, the “Detroit 562 (pharynx, carcinoma) cell viability (% of control)” value ([8]; 300 nM) was 34.1 ± 6.5 % of control and the “FaDu (pharynx, squamous cell carcinoma) cell viability (% of control)” value (“FaDu … (% of control)” for short) ([9]; 3.7 nM) was 98.6 ± 1.9 % of control. For the same molecule, the “FaDu … (% of control)” value ([9]; 11.1 nM) was 74.3 ± 4.2 % of control, the “FaDu … (% of control)” value ([9]; 100 nM) was 24.6 ± 3.6 % of control and the “FaDu … (% of control)” value ([9]; 300 nM) was 25.5 ± 4.3 % of control. For the same molecule, the “MIA PaCa-2 (pancreas, carcinoma) cell viability (% of control)” value ([10]; 3.7 nM) was 102.5 ± 5.4 % of control, the “MIA PaCa-2 (pancreas, carcinoma) cell viability (% of control)” value ([10]; 11.1 nM) was 91.5 ± 6.6 % of control and the “MIA PaCa-2 (pancreas, carcinoma) cell viability (% of control)” value ([10]; 100 nM) was 18.8 ± 6.2 % of control. For the same molecule, the “MIA PaCa-2 (pancreas, carcinoma) cell viability (% of control)” value ([10]; 300 nM) was 17.4 ± 7.1 % of control, the “PC-3 (prostate, adenocarcinoma) cell viability (% of control)” value ([11]; 3.7 nM) was 107.1 ± 5.9 % of control and the “PC-3 (prostate, adenocarcinoma) cell viability (% of control)” value ([11]; 11.1 nM) was 82.3 ± 7.0 % of control. For the same molecule, the “PC-3 (prostate, adenocarcinoma) cell viability (% of control)” value ([11]; 100 nM) was 32.7 ± 2.6 % of control, the “PC-3 (prostate, adenocarcinoma) cell viability (% of control)” value ([11]; 300 nM) was 32.8 ± 4.1 % of control and the “DU 145 cell viability” value ([12]; 3.7 nM) was 101.2 ± 6.5 % of control. The “DU 145 cell viability” value ([12]; 11.1 nM) was 48.7 ± 1.7 % of control, the “DU 145 cell viability” value ([12]; 100 nM) was 8.3 ± 2.9 % of control and the “DU 145 cell viability” value ([12]; 300 nM) was 9.0 ± 2.9 % of control. For the same molecule, the LNCaP cell viability ([13]; 3.7 nM) was 95.3 ± 2.3 % of control, the LNCaP cell viability ([13]; 11.1 nM) was 37.9 ± 3.3 % of control and the LNCaP cell viability ([13]; 100 nM) was 13.5 ± 0.7 % of control. The LNCaP cell viability ([13]; 300 nM) was 13.6 ± 0.6 % of control, the “MDA-MB-453 (breast, carcinoma) cell viability (% of control)” value ([14]; 3.7 nM) was 107.2 ± 9.1 % of control and the “MDA-MB-453 (breast, carcinoma) cell viability (% of control)” value ([14]; 11.1 nM) was 47.8 ± 6.2 % of control. The “MDA-MB-453 (breast, carcinoma) cell viability (% of control)” value ([14]; 100 nM) was 32.3 ± 1.3 % of control, the “MDA-MB-453 (breast, carcinoma) cell viability (% of control)” value ([14]; 300 nM) was 32.2 ± 1.3 % of control and the “EBC-1 (lung, squamous cell carcinoma) cell viability (% of control)” value ([15]; 3.7 nM) was 99.9 ± 2.5 % of control. For the same molecule, the “EBC-1 (lung, squamous cell carcinoma) cell viability (% of control)” value ([15]; 11.1 nM) was 70.3 ± 0.9 % of control, the “EBC-1 (lung, squamous cell carcinoma) cell viability (% of control)” value ([15]; 100 nM) was 23.5 ± 1.0 % of control and the “EBC-1 (lung, squamous cell carcinoma) cell viability (% of control)” value ([15]; 300 nM) was 23.5 ± 2.5 % of control.
